Measured values: patent publication US20070037887A1, “Blockade of mtor to prevent a hormonal adaptive response” (University of Virginia Patent Foundation, priority 2003, published 2007)

Tests used:
[1] = system: LTED cells; assay: Apoptosis ELISA (Cell Death Detection Kit), LTED cells; assay type: cell-based, human; conditions: three day treatment
Procedure: (§1) FIG. 6 is a bar graph portraying data representing the induction of apoptosis in MCF-7 and LTED cells by FTS. Eighty thousand MCF-7 and LTED cells were plated into each well of 12-well plates in their culture media. Two days later, the cells were treated with FTS for 3 days. Apoptosis was measured using a Cell Death Detection Kit from Roche Molecular Biochemicals. Parallel plates subjected to identical treatment were prepared for cell counting. The results were expressed as the values of optical density at 405 nm per 10,000 cells.
(§2) Applicants postulated that these cells might also have become sensitized to the pro-apoptotic effects of estradiol. To test this hypothesis, an ELISA assay was used to assess apoptosis and to compare the effects of estradiol in wild-type and LTED cells. […] The presence of apoptosis in LTED cells was confirmed by the measurement of annexin V and the use of time-lapse microscopy.
(§3) The effect of a three day treatment with FTS on apoptosis in MCF-7 and LTED cells was examined using the ELISA assay for quantitation. […] LTED cells were much more sensitive than MCF-7 cells to the apoptotic effects of FTS.

[2] = system: MCF-7 cells; assay: [3H] thymidine incorporation into DNA, MCF-7 cells; assay type: cell-based, human
Procedure: FIGS. 5A & 5B represent the effect of FTS on DNA synthesis in MCF-7 (FIG. 5A) and LTED (FIG. 5B) cells. One hundred thousand cells were plated into each well of 24-well plates. Two days later, the cells were re-fed with IMEM containing 5% DCC-FBS. After another two days, cells were treated in quadruplicate with the compounds indicated for 18 hours. [^3H] thymidine (1 μCi/well) was added during the last 2 h of incubation. [^3H] thymidine incorporated into DNA was normalized by protein content.
The inhibitory effect of FTS on cell growth may be the result of inhibition of cellular proliferation, induction of apoptosis, or both. To determine the mechanism by which FTS inhibits cell growth, FTS's effect on DNA synthesis and apoptosis was investigated. […] Estradiol (10^−10 M) increased [^3H] thymidine incorporation by 2.6 fold compared to the control level in MCF-7 cells.

[3] = system: MCF-7 cells; assay: Apoptosis ELISA (Cell Death Detection Kit), MCF-7 cells; assay type: cell-based, human; conditions: three day treatment
Procedure: as §1, §2, §3

[4] = system: T1, mTOR-raptor complex; assay: Coimmunoprecipitation of raptor with mTOR, compound added to cell extracts or immune complexes; assay type: binding; conditions: extracts of nontransfected cells
T1 construct: rows headed: amount of endogenous raptor that coimmunoprecipitated with mTOR; other: extracts of nontransfected cells
Procedure: 293T cells were transfected with pcDNA3 alone (Vec.) or with a combination of pcDNA3AU1-mTOR, pcDNA33HA-Raptor, and pcDNA33HA-mLST8. Extracts of the cells were incubated with increasing concentrations of FTS before AU1-mTOR was immunoprecipated. Samples of the immune complexes were incubated with [γ-^32P]ATP and recombinant [His^6]PHAS-I, then subjected to SDS-PAGE and transferred to an immobilon membrane. After obtaining a phosphorimage of the membrane to detect ^32P-PHAS-I, the membrane was immunoblotted with PThr^36/45 antibodies. Other samples of the immune complexes were subjected to SDS-PAGE and immunoblots were prepared with antibodies to the HA epitope or to mTOR (see FIG. 13A). Extracts of nontransfected 293T cells were incubated with increasing concentrations of FTS before mTOR was immunoprecipated with mTAb1. A control immunoprecipitation was conducted using nonimmune IgG (NI). Immune complexes were subjected to SDS-PAGE and immunoblots were prepared with antibodies to mLST8, mTOR, and raptor.
Samples of extracts from 293T cells overexpressing AU1-mTOR, HA-raptor, and HA-mLST8 were incubated for 1 h with increasing concentrations of FTS (●, ▴, ▪) or GTS (∘, Δ, □) before immunoprecipitations were conducted with anti-AU1 antibodies. mTOR kinase activity (●, ∘) was determined by measuring ^32P incorporation into [His^6]PHAS-I in immune complex kinases assays performed with [γ-^32P]ATP (see FIG. 14A). The relative amounts of HA-raptor (▴, Δ) and HA-mLST8 (▪, □) that coimmunoprecipitated with AU1-mTOR were determined after immunoblotting with anti-HA antibodies (see FIG. 14B). The results (mean values+S.E. from 5 experiments) are expressed as percentages of the mTOR activity (FIG. 14A) or coimmunoprecipitating proteins (FIG. 14B) from samples incubated without FTS or GTS, and have been corrected for the amounts of AU1-mTOR immunoprecipitated.
293T cells were transfected with pcDNA3 alone (Vec.) or with a combination of pcDNA3AU1-mTOR, pcDNA33HARaptor, and pcDNA33HA-mLST8. AU1-mTOR was immunoprecipitated and samples of the washed immune complexes were at incubated […] for 30 min with no inhibitors or with the following: caffeine (1 mM), FTS (50 μM), LY294002 (10 μM), rapamycin (1 μM) plus FKBP12 (10 μM), and 1 μM wortmannin. To prevent destruction of wortmannin, incubations were conducted in the absence of thiol reducing agents. Samples of the immune complexes were incubated for 10 min with 10 mM MnCl2, 1 mM [γ-^32P]ATP, and 50 μg/ml [His^6]PHAS-I to assess mTOR activity. Other samples were rinsed twice, subjected to SDS-PAGE, and immunoblotted with anti-HA and anti-AU1 antibodies to determine the amounts of HA-raptor and HA-mLST8 associated with AU1-mTOR. The relative amounts of ^32P incorporated into PHAS-I were determined by phosphorimaging (see FIG. 15B).

CC(C)=CCC/C(C)=C/CC/C(C)=C/CSc1ccccc1C(=O)O [FTS, farnesylthiosalicylic acid]
induction of apoptosis ([1]; FTS 75 μM): dramatic increase in apoptosis
induction of apoptosis ([1]; FTS 20 and 50 μM): did not induce apoptosis
[3H] thymidine incorporated into DNA ([2]; FTS 75 μM, 18 hours): significantly reduced
estradiol-induced increase of [3H] thymidine incorporation ([2]; FTS with estradiol 10^−10 M): completely blocked
induction of apoptosis ([3]; FTS 75 μM): dramatic increase in apoptosis
induction of apoptosis ([3]; FTS 20 and 50 μM): did not induce apoptosis
amount of endogenous raptor that coimmunoprecipitated with mTOR [4]: decreased
